What was measured:
[1] = Time taken by compound for 10% decrease in benzyl-penicillin concentration; type: ADME
[2] = pKa1 value determined; type: physicochemical; settings: read-out: pKa1
[3] = pKa2 value determined; type: physicochemical; settings: read-out: pKa2

Row | SMILES | Time [1] | pKa [2] | pKa [3]
1 | Cc1cc(CN)c(O)c(CN)c1 | 1.38 h | 7 | 9.7
2 | Cc1cc([C@@H](N)CO)c(O)c([C@@H](N)CO)c1 | 3.6 h | 6.3 | 9
3 | Cc1ccc(O)c(CN)c1 | 8.25 h | 8.7 | 
4 | COc1c(CN)cc(C)cc1CN | 44.9 h | 8.5 | 10.2
5 | Cc1cc(CNCCO)c(O)c(CNCCO)c1 | 2.45 h | 6.4 | 9.7

— ChEMBL document CHEMBL1134252, “Reaction of Lys-Tyr-Lys triad mimics with benzylpenicillin: insight into the role of Tyr150 in class C beta-lactamase” (Bioorg Med Chem Lett, 2001)
